Among the data in PMC4876393, “Structure of the Dictyostelium Myosin-II Heavy Chain Kinase A (MHCK-A) α-kinase domain apoenzyme reveals a novel autoinhibited conformation” (Scientific Reports, 2016) are Kd values, retold here.

Test in all cases: Nucleotide binding assay with fluorescent mant-ADP on purified A-CAT, carried out as previously described (ref 51); at least 3 separate experiments.
In one assay the target is T1, A-CAT WT (Dictyostelium discoideum, UniProt P42527).
T1 construct: gene mhkA; A-CAT: alpha-kinase domain and Thr825 autophosphorylation site of MHCK-A; expressed in E. coli
T1 sequence (P42527 552-841): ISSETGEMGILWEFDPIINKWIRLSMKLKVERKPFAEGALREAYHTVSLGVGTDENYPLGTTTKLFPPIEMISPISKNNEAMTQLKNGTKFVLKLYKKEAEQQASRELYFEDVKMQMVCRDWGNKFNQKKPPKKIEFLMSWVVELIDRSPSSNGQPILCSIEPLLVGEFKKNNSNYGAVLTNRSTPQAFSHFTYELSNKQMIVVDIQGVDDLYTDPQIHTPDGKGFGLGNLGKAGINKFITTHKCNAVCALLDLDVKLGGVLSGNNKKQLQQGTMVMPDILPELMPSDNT
The settings on record: SD, n = 3. On the procedure: (§1) Assays were carried out at 22 °C in a buffer containing 2 mM MgCl2, 1 mM dithiothreitol and 20 mM TES, pH 7.0. Kinase assays contained 20 μM myelin basic protein (MBP), 0.5–2 μM A-CAT and 200 μM [γ-^32P]ATP (specific activity 100 cpm/pmol). At each time point, 20 μl aliquots of the reaction mixture were spotted onto squares of Whatman P81 phosphocellulose paper, which were then washed 1% phosphoric acid, immersed in ScintiVerse Universal LS Mixture (Fisher Scientific), and counted using a Beckman LS 9000 scintillation counter. Assays to measure A-CAT-Δ809 activity in the presence of the QQG(p)TMVMPD and QQG(p)TMSMPD peptides were carried out as described. ATPase activity was assayed using 250 μM ATP and release of inorganic phosphate (Pi) was measured using the Pi ColorLock Gold phosphate detection system (Innova Biosciences). Data from the initial linear portion of the time courses were used to calculate kinase and ATPase activity. Nucleotide binding assays using mant-ATP and mant-ADP were carried out as previously described. Results represent the mean and standard deviation of at least 3 separate experiments.

A further assay has as its target T2, D663A (Dictyostelium discoideum, UniProt P42527, D663A).
T2 construct: gene mhkA; A-CAT: alpha-kinase domain and Thr825 autophosphorylation site of MHCK-A; expressed in E. coli
T2 sequence (P42527 552-841 D663A): T1 sequence (P42527 552-841)
Particulars: read-out: mant-ADP Kd; SD, n = 3. As to the method:
as §1

In a further assay the target is T3, D663S (Dictyostelium discoideum, UniProt P42527, D663S).
T3 construct: gene mhkA; A-CAT: alpha-kinase domain and Thr825 autophosphorylation site of MHCK-A
T3 sequence (P42527 552-841 D663S): T1 sequence (P42527 552-841)
Particulars: read-out: mant-ADP Kd; SD, n = 3. On the procedure: as §1

Another assay deals with T4, Y647A (Dictyostelium discoideum, UniProt P42527, Y647A).
T4 construct: gene mhkA; A-CAT: alpha-kinase domain and Thr825 autophosphorylation site of MHCK-A
T4 sequence (P42527 552-841 Y647A): T1 sequence (P42527 552-841)
The settings on record: read-out: mant-ADP Kd; SD, n = 3. As to the method:
as §1

Structures are written as SMILES.

As usually defined, the Kd is the free concentration of one partner at which half of the binding sites on the other are occupied at equilibrium, for simple one-to-one binding. For `CNc1ccccc1C(=O)O[C@H]1[C@@H](O)[C@H](n2cnc3c(N)ncnc32)O[C@@H]1COP(=O)(O)OP(=O)(O)O` [mant-ADP, 2'/3'-O-(N-methylanthraniloyl)adenosine 5'-diphosphate], the Kd at A-CAT WT stood at 15 ± 2 µM; at D663A, 8 ± 2 µM; on D663S it was 12 ± 2 µM; on Y647A, 30 ± 2 µM.
